Source: patent US20250145585A1, “HETEROCYCLIC INHIBITORS OF IGF-1R FOR TREATMENT OF DISEASE” (HORIZON THERAPEUTICS IRELAND DAC, priority 2023, published 2025)

Molecular target: T1, IGF-1R (Homo sapiens, UniProt P08069)
T1 construct: expressed in transfected cells
Assay: Example B-1: IGF-1R Assay (PC3 cells stimulated with IGF1, AlphaLISA on cell lysates)
Format: cell-based
Conditions: compound two hours, IGF1 200 ng/mL for 30 min, read-out: IC50, Biological Activity against IGF-1R (Table B1)
Description: 50K PC3 cells were seeded on day 1 in 50 μL of media in 96-well plate and incubated overnight at 37° C., 5% CO2. On day 2, all cells were expected to be at 80-90% confluency. Cells were starved for two hours by changing the media to 90 μL of EMEM serum-free media and incubated for 2 hours. Next, cells were treated with 10 μL of 10× concentrated and 3× serially diluted compounds for two hours. It makes 1× of compounds in 100 μL media. This was followed by stimulation of cells with 11×IGF1 for 30 min in 10 μL of serum-free EMEM media at the final concentration of 200 ng/mL.
The media was removed and replaced by 50 μL of 1× lysis buffer from the AlphaLISA kit (with 1× of cOmplete™ protease inhibitor). The plates were sealed, and cells were allowed to lyse for 10 min in the shaker before storing the plate at −20° C. until used. The AlphaLISA assay with processed cell lysates were performed as described in the protocol. Briefly, 10 μL of the undiluted sample were loaded to 384 well Optiplates and 5 μL of the acceptor mix (as described in the AlphaLISA kit) was added to each well. The plates were sealed and briefly vortexed followed by the incubation at RT for 3 hours. In the dark, 5 μL of donor mix was added to each well. All plates were sealed and stored at RT overnight. The plates were read in EnVision reader using standard AlphaLISA settings.
Compound activity was analyzed using CBIS data analysis suite (Cheminnovation, CA). Percentage inhibition was calculated using the following formula: % I-hibition=100%×(1−(mea−RLU of test sample−mean RLU of vehicle control)/(mean-RLU of EC80 control−mean RLU of vehicle control)). The activity for representative examples of the invention is shown in the following table, wherein A: IC50≤500 nM; B: 500 nM<IC50≤2 μM; C: 2 μM<IC50≤10 μM; D: IC50>10 μM.

T1 sequence (P08069 31-1367): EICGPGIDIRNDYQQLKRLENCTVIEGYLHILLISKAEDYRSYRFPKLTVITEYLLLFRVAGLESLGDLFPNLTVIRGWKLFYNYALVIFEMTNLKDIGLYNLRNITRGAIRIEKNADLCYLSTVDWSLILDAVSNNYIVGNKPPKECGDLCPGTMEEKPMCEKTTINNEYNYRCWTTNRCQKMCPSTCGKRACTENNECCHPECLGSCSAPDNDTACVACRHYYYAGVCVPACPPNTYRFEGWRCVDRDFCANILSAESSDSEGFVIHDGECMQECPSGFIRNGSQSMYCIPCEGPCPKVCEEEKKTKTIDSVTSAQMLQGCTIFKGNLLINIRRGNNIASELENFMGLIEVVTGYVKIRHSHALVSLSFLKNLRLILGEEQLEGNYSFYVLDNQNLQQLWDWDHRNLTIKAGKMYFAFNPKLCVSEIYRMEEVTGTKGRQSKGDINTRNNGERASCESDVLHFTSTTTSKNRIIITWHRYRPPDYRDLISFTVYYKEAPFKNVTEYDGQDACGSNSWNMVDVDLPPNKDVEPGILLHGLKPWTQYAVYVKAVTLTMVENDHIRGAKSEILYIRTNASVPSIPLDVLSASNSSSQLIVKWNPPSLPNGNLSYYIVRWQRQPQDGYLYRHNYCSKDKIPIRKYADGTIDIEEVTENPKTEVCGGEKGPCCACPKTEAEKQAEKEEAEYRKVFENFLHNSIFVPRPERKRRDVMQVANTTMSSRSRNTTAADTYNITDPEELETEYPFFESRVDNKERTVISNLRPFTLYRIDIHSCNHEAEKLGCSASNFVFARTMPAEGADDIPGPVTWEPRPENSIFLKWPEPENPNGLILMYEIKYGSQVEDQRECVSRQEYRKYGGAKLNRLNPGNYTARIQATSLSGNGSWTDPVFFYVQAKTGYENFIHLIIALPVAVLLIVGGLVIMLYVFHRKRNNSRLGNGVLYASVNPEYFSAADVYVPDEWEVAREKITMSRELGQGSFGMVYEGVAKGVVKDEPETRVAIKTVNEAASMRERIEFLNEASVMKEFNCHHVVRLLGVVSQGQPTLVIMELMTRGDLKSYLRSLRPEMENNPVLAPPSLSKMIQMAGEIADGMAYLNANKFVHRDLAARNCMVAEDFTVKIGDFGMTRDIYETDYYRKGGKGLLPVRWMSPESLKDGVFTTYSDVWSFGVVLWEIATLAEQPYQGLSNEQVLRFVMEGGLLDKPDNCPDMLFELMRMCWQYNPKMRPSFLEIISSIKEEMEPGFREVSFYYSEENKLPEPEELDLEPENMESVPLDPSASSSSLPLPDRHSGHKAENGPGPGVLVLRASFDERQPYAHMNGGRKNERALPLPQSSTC

SMILES: CC1(C)C(=O)N(c2ccc(SC(F)(F)F)cc2)C(=O)N1Cc1ccnc2[nH]c(C3CC3)cc12 [Compound 15, 1-((2-cyclopropyl-1H-pyrrolo[2,3-b]pyridin-4-yl)methyl)-5,5-dimethyl-3-(4-((trifluoromethyl)thio)phenyl)imidazolidine-2,4-dione]
- IC50: > 10000 nM

SMILES: CC1(C)C(=O)N(c2ccc(C#N)cc2)C(=O)N1Cc1ccnc(N)c1 [Compound 80, 4-(3-((2-aminopyridin-4-yl)methyl)-4,4-dimethyl-2,5-dioxoimidazolidin-1-yl)benzonitrile]
- IC50: 500 to 2000 nM

SMILES: CC1(C)C(=O)N(c2ccc(-c3nccs3)cc2)C(=O)N1Cc1ccnc(N)c1 [Compound 81, 1-((2-aminopyridin-4-yl)methyl)-5,5-dimethyl-3-(4-(thiazol-2-yl)phenyl)imidazolidine-2,4-dione]
- IC50: 2000 to 10000 nM

SMILES: CC1(C)C(=O)N(c2ccc(C3(C#N)CC3)cc2)C(=O)N1Cc1ccnc(N)c1 [Compound 82, 1-(4-(3-((2-aminopyridin-4-yl)methyl)-4,4-dimethyl-2,5-dioxoimidazolidin-1-yl)phenyl)cyclopropane-1-carbonitrile]
- IC50: ≤ 500 nM

SMILES: CC1(C)C(=O)N(c2ccc(C3(C(F)(F)F)CC3)cc2)C(=O)N1Cc1ccnc(N)c1 [Compound 83, 1-((2-aminopyridin-4-yl)methyl)-5,5-dimethyl-3-(4-(1-(trifluoromethyl)cyclopropyl)phenyl)imidazolidine-2,4-dione]
- IC50: ≤ 500 nM

SMILES: CC1(C)C(=O)N(c2ccc(C3CCOC3)cc2)C(=O)N1Cc1ccnc(N)c1 (centres unmarked) [Compound 85, 1-((2-aminopyridin-4-yl)methyl)-5,5-dimethyl-3-(4-(tetrahydrofuran-3-yl)phenyl)imidazolidine-2,4-dione]
- IC50: 500 to 2000 nM

SMILES: CC1(C)C(=O)N(c2ccc(C3=CCCCC3)cc2)C(=O)N1Cc1ccnc(N)c1 [Compound 86, 1-((2-aminopyridin-4-yl)methyl)-5,5-dimethyl-3-(2′,3′,4′,5′-tetrahydro-[1,1′-biphenyl]-4-yl)imidazolidine-2,4-dione]
- IC50: 500 to 2000 nM

SMILES: CC1(C)C(=O)N(c2ccc(C3CCCCC3)cc2)C(=O)N1Cc1ccnc(N)c1 [Compound 87, 1-((2-aminopyridin-4-yl)methyl)-3-(4-cyclohexylphenyl)-5,5-dimethylimidazolidine-2,4-dione]
- IC50: 500 to 2000 nM

SMILES: CC(C)Nc1cc(CN2C(=O)N(c3ccc([Si](C)(C)C)cc3)C(=O)C2(C)C)ccn1 [Compound 89, 1-((2-(isopropylamino)pyridin-4-yl)methyl)-5,5-dimethyl-3-(4-(trimethylsilyl)phenyl)imidazolidine-2,4-dione]
- IC50: ≤ 500 nM

SMILES: CC1(c2ccc(N3C(=O)N(Cc4ccnc(N)c4)C(C)(C)C3=O)cc2)COC1 [Compound 90, 1-((2-aminopyridin-4-yl)methyl)-5,5-dimethyl-3-(4-(3-methyloxetan-3-yl)phenyl)imidazolidine-2,4-dione]
- IC50: 500 to 2000 nM

SMILES: CC1(C)C(=O)N(c2ccc(C(F)(F)F)cc2)C(=O)N1Cc1ccnc(N)c1 [Compound 91, 1-((2-aminopyridin-4-yl)methyl)-5,5-dimethyl-3-(4-(trifluoromethyl)phenyl)imidazolidine-2,4-dione]
- IC50: 2000 to 10000 nM

SMILES: CC(C)Nc1cc(CN2C(=O)N(c3ccc(I)cc3)C(=O)C2(C)C)ccn1 [Compound 92, 3-(4-iodophenyl)-1-((2-(isopropylamino)pyridin-4-yl)methyl)-5,5-dimethylimidazolidine-2,4-dione]
- IC50: 500 to 2000 nM

SMILES: CC1(C)C(=O)N(c2ccc(CC(F)(F)F)cc2)C(=O)N1Cc1ccnc(N)c1 [Compound 94, 1-((2-aminopyridin-4-yl)methyl)-5,5-dimethyl-3-(4-(2,2,2-trifluoroethyl)phenyl)imidazolidine-2,4-dione]
- IC50: ≤ 500 nM

SMILES: CC1(C)C(=O)N(c2ccc(C(C)(C)C(F)(F)F)cc2)C(=O)N1Cc1ccnc(N)c1 [Compound 95, 1-((2-aminopyridin-4-yl)methyl)-5,5-dimethyl-3-(4-(1,1,1-trifluoro-2-methylpropan-2-yl)phenyl)imidazolidine-2,4-dione]
- IC50: ≤ 500 nM
